Assay results as given in patent publication US20190350240A1, “Electrolyte-Enhanced Sweetener and Consumable Products Obtained” (priority 2018, published 2019).
“Also recorded” adds a separate entry of the source.

Columns and labels:
[1] = cool drinking water, without lengthy stirring or heating
Description: The first salt screen that was employed tested whether each electrolyte salt had sufficient water solubility. The screen tested whether each salt could dissolve sufficiently into cool drinking water and […] without the need for lengthy stirring or heating.

[2] = Salt Screen #4: compatibility (CMP) in sweetened cold-brewed coffee and tea; format: in vivo; conditions: sweetener compositions in cold-brewed coffee and tea, pH-sensitive flavors
Experimental: The fourth salt screen that was employed tested whether each electrolyte salt could enhance the sweetener compositions used to sweeten cold-brewed coffee and tea without disturbing the flavors of these pH-sensitive beverages. The disturbance of pH-sensitive flavors is an important screen because many electrolyte salts influence the pH of the beverages to which they are added. This screen was only applied to the five electrolyte salts that passed the three earlier salt screens.

[3] = Sugar-like flavor judged by taste judges in water versus 10% or 20% sucrose (taste, intensity, thickness, total); format: in vivo; conditions: for improvement in sugar-like flavor: at optimal dose or ratio, versus starting composition without the added ingredient (zero mg/L; pure S1); for optimal level for sugar-like flavor: potassium in 1300 mg/L HPS, sodium in 1300 mg/L HPS + 200 mg/L potassium
Description: The compositions and methods that embody this invention describe how to form electrolyte-enhanced sweetener compositions that better reproduce the flavor of natural sugar with negligible calories and with favorable physical properties. According to these methods, sugar-like flavor was defined by the numerical consensus of four criteria which were sugar-like taste, intensity, thickness, and compatibility and will be described below.
The four criteria were quantified numerically as four percentile scores. Scores of 100% represented the complete and satisfying reproduction of each criterion of sugar-like flavor. For reference, naturally-refined cane sugar received percentile scores of 100% across all criteria because of how the criteria were defined.
Taste (TAS) The criterion of sugar-like taste encompasses how well a sweetener reproduces the taste of sugar at a high level of sweetness corresponding to a 10% sucrose solution. Ten percent sucrose is equivalent to a 12-ounce soft drink (355 milliliters) sweetened with 36 grams of sucrose. For reference, the sweet taste of sugar develops and recedes across the entire tongue with each tasting in a characteristic way. The time profile of sugar's sweetness is something we generally take for granted until we taste a sweetener with a different time profile that makes it taste unnatural and unsatisfying.
According to a preferred embodiment of this invention, the tastes of sweetener compositions (TAS) were compared to 10% sucrose and evaluated based on the following taste and olfactory flavor properties: • 1. Sweetness across the entire tongue and not in throat; • 2. Rapid onset of sweetness without delay; • 3. Rapid decay of sweetness without lingering after-taste; • 4. Sweetness without bitterness; • 5. Subtle caramel flavor without off-flavors.
Intensity (INT) The criterion of sugar-like intensity represents how well a sweetener reproduces the same five taste properties of sugar (represented by TAS) but at a very high level of sweetness typical in desserts. Drinking water sweetened with 20% sucrose is used as a taste reference for evaluating INT.
Thickness (THK) The criterion of sugar-like thickness represents how well a sweetener reproduces the thick texture of sugar-sweetening that becomes syrupy at higher dose levels. Drinking water samples sweetened with 10% sucrose and with 20% sucrose are used as taste references for evaluating THK.
Total (TOT) The consensus of the percentile scores for the four criteria was determined by numerical averaging to form a total score of sugar-like flavor.
The first three criteria for sugar-like flavor—taste TAS, intensity INT, and thickness THK—were evaluated by taste judges who compared water sweetened to a level of either 10% or 20% sucrose to water sweetened with various sweetener compositions. A level of 10% sucrose represents the sweetness of typical soft drinks and 20% sucrose represents the sweetness of typical desserts.
Taste judges initially evaluated the sugar-like taste TAS and thickness THK of sweetener compositions at the sweetness level of typical soft drinks. They rinsed their mouths with plain water and then evaluated a 100 mL sample of 10% sucrose solution. They took a 15 mL aliquot of the sample into the mouth and swished it around for about 15 seconds. For each mouthful, they evaluated the time course of sweetness onset and decay, natural sugar flavors, off-flavors, and thickness, and they expelled the aliquot into a waste receptacle. Judges continued taking a series of mouthfuls up to a total volume of 100 mL to evaluate the changes in flavor perception from one mouthful to the next related to the natural loss of perceived sweetness, flavor, and thickness of sugar solutions. This protocol was then repeated for each 100 mL sample of spring water sweetened with various sweetener compositions. […]

[4] = in sweetener compositions exposed to ambient air (hygroscopicity)
Description: The third salt screen that was employed tested whether each electrolyte salt could enhance the flavor of sweetener compositions and remain shelf stable when exposed to ambient air. This screen is related to the water solubility of the salt. When salts have too much water solubility, they can become hygroscopic which means they absorb water from ambient air. Hygroscopic salts become wet and clumpy when exposed to ambient air, and they cause sweetener compositions containing them to become difficult to package and dispense because of this instability to air exposure.
This third salt screen is complementary to the first salt screen because it identifies salts with too much water solubility, while the first salt screen identifies salts with too little water solubility.

[5] = Salt Screen #2: thick and heavy flavor before unpleasant off-flavor (taste, TAS); format: in vivo
Description: The second salt screen that was employed tested whether each electrolyte salt could elicit a thick and heavy flavor before it elicited an unpleasant off-flavor, such as saltiness, bitterness, or chalkiness.

[6] = Carbohydrate screen: flavor at strength of 10% sucrose in water, and mixed with the sweetener composition; format: in vivo; conditions: dissolved into one liter of water to a strength of 10% sucrose
Experimental: Natural sugars and sugar alcohols were screened from commercial sources as candidates for the carbohydrate composition. Refined and unrefined cane sugar, brown sugar, cane juice sugar, maple sugar, coconut sugar, glucose, fructose, and erythritol were dissolved into one liter of water to a strength of 10% sucrose and evaluated for flavor.
Both refined and unrefined cane sugar solutions were mixed with solutions containing the sweetener composition mixed to a strength of 10% sucrose.

[7] = thick and heavy flavor before saltiness, bitterness or chalkiness

[Cl-].[K+] [Potassium Chloride, potassium chloride]
Does the Electrolyte Salt Have Suitable Solubility? [1]: Yes | Does the Electrolyte Salt have Suitable Compatibility (CMP)? [2]: Yes | Does the Electrolyte Salt have Suitable Compatibility (CMP)? ([2]; listed as Potassium chloride): passed | improvement in sugar-like flavor [3]: about 10% | optimal level for sugar-like flavor [3]: 200 mg/L | Does the Electrolyte Salt have Suitable Shelf Stability? [4]: Yes | Does the Electrolyte Salt Have Suitable Taste (TAS)? [5, 7]: Yes

CC(O)C(=O)[O-].CC(O)C(=O)[O-].[Ca+2] (stereo not shown) [Calcium Lactate, calcium lactate]
Does the Electrolyte Salt have Suitable Compatibility (CMP)? [2]: NO, Develops sour/chalky flavor | Does the Electrolyte Salt have Suitable Compatibility (CMP)? ([2]; listed as calcium lactate): sour and chalky | Does the Electrolyte Salt have Suitable Shelf Stability? [4]: Yes | Does the Electrolyte Salt Have Suitable Taste (TAS)? [5, 7]: Yes

O=C([O-])O.[Na+] [Sodium Bicarbonate, sodium bicarbonate]
Does the Electrolyte Salt have Suitable Compatibility (CMP)? [2]: NO, Develops sour/chalky flavor | Does the Electrolyte Salt have Suitable Compatibility (CMP)? ([2]; listed as sodium carbonate): sour and chalky | Does the Electrolyte Salt Have Suitable Taste (TAS)? [5, 7]: Yes

O=P([O-])(O)O.[Na+] [Sodium Phosphate Monobasic, sodium phosphate monobasic]
Does the Electrolyte Salt have Suitable Compatibility (CMP)? [2]: NO, Develops sour/chalky flavor | Does the Electrolyte Salt have Suitable Compatibility (CMP)? ([2]; listed as sodium phosphate monobasic): sour and chalky | Does the Electrolyte Salt have Suitable Shelf Stability? [4]: Yes | Does the Electrolyte Salt Have Suitable Taste (TAS)? [5, 7]: Yes

[Cl-].[Cl-].[Mg+2] [Magnesium Chloride, magnesium chloride]
Does the Electrolyte Salt Have Suitable Taste (TAS)? ([5]; in vivo): Yes

[Cl-].[Na+] [Sodium Chloride, sodium chloride]
Does the Electrolyte Salt have Suitable Compatibility (CMP)? [2]: Yes | Does the Electrolyte Salt have Suitable Compatibility (CMP)? ([2]; listed as sodium chloride): passed | taste of sweetened, potassium-enriched water with sodium chloride ([3]; HPS 1300 mg/L, potassium 200 mg/L, dietary sodium level of 150 grams per liter (so in the source)): thick and only mildly salty | taste of sweetened, potassium-enhanced water with sodium chloride ([3]; HPS 1300 mg/L, potassium 200 mg/L, sodium level of 600 mg/L): unacceptably salty | improvement in sugar-like flavor [3]: about 5% | optimal level for sugar-like flavor [3]: 40 mg/L | Does the Electrolyte Salt Have Suitable Taste (TAS)? [5, 7]: Yes

O=C([O-])[O-].[Ca+2] [Calcium Carbonate, calcium carbonate]
Does the Electrolyte Salt Have Suitable Taste (TAS)? ([5]; in vivo): NO, Develops chalky and dry flavor; also recorded: tasted chalky

OC[C@@H](O)[C@@H](O)CO [Erythritol, erythritol]
flavor evaluation of carbohydrate candidates [6]: drying sensation on the tongue or cooling sensation on the throat

[Ca+2].[Cl-].[Cl-] [Calcium Chloride, calcium chloride]
Does the Electrolyte Salt Have Suitable Taste (TAS)? ([5]; in vivo): Yes

O=S(=O)([O-])[O-].[Mg+2] [Magnesium Sulfate, magnesium sulfate]
Does the Electrolyte Salt Have Suitable Taste (TAS)? ([5]; in vivo): NO, Develops sour and dry flavor; also recorded: tasted sour

O=C(CO)[C@@H](O)[C@H](O)[C@H](O)CO [Fructose, fructose]
flavor evaluation of carbohydrate candidates [6]: lose its sweetness at higher temperatures
